Non-standard residues stand in square brackets, D forms with d. Residues, ends and D or L forms follow the SMILES beside them. dOrn = NCCC[C@@H](N)C(=O)O
Legend:
[1] = system: Colistin-resistant bacteria; experiment: CLSI microbroth dilution antibacterial assay, colistin-resistant strains; type: cell-based, E. coli
Description: (§1) Bacterial Strains. All strains used in this study except the Bacillus strain and the colistin resistant E. coli strains were obtained from Professor Paul Hergenrother (UIUC). The Bacillus strain was obtained from Professor William Metcalf (UIUC). The colistin resistant E. coli strains (AR Bank Number 0346, 0349, and 0350) were obtained from the CDC AR Isolate bank). E. coli ATCC 25922 (wild type, WT) BAA-2469 (resistant, R), colistin resistant E. coli, K pneumonia ATCC 27736 (WT) and BAA-2146 (R), A. baumannii ATCC 19606 (WT) and KB349 (R), and P. aeruginosa PAO1 (WT) and PA1000 (R) were grown on Mueller Hinton Broth 2 (Sigma Aldrich). S. aureus ATCC 29213 (WT) and NRS3 (R), Enterococcus species ATCC 19433 (WT) and 5235 (R), and B. subtilis 6633 (WT) were maintained on Bacto Brain Heart Infusion.
Antibacterial activity analysis. Antibacterial activity analysis for all bacteria was performed using the microdilution broth method as outlined by the Clinical and Laboratory Standards Institute (CLSI).9 Mueller Hinton Broth 2 (MH, Sigma-Aldrich, 90922) was used for all testing. Testing was performed as previously described.10 Turbidity (OD600) of the wells was determined using a SpectraMax iD3 platereader (Molecular Devices). For the compounds that hit during initial screens, minimum inhibitory concentrations were determined. A minimum of three biological replicates were performed. […]

[2] = system: A549 non-small cell lung cancer cell line; experiment: Alamar blue viability assay; type: cell-based, human; settings: 16 ug/mL, 48 hours
Procedure: Anticancer Testing. A549 non-small cell lung cancer cells (ATCC CCL-185) were obtained directly from ATCC and used within 30 passages. A549 cells were maintained in RPMI 1640 medium supplemented with 10% fetal bovine serum, 100 U/mL penicillin, and 100 ug/mL streptomycin. For anticancer testing, cells were seeded at 2000 cells per well in 96 well plates and allowed to adhere overnight. Cells were then treated with compound at 16 ug/mL (1% DMSO final) or vehicle control for 48 hours. Viability was assessed using Alamar Blue. Specifically, resazurin (Sigma Aldrich, R7017) was dissolved at 440 μM in sterile PBS. 20 μL was then added to each well and incubated for 4-8 h at 37° C. Fluorescence was measured using a SpectraMax iD3 platereader (Excitation: 550 nm, Emission 590 nm). Percent death was calculated by subtracting the background from all wells and setting 0% death to vehicle treated controls.

[3] = system: ESKAPE pathogens; experiment: CLSI microbroth dilution antibacterial assay; type: cell-based
Procedure: Bioactivity testing. Initial compounds were tested for activity against antibiotic sensitive and antibiotic resistant ESKAPE pathogens at concentrations varying between 0.5 and 32 μg/mL using the CLSI microbroth dilution assay.^47 Any well with greater than 90% death was considered a hit.
as §1
Antibacterial activity analysis. […] Testing was performed as previously described.10 Turbidity (OD600) of the wells was determined using a SpectraMax iD3 platereader (Molecular Devices). For the compounds that hit during initial screens, minimum inhibitory concentrations were determined. […]

SMILES: CC(C)[C@@H]1NC(=O)[C@@H](CCCNC(=N)N)NC(=O)[C@H]([C@@H](C)O)NC(=O)[C@@H](CCCN)NC(=O)[C@H](Cc2ccccc2)NC(=O)[C@@H](Cc2ccccc2)NC1=O [pNP-43] (cyclo(F[dOrn]T[dR]V[dF]))
- susceptibility of colistin-resistant bacteria [1]: resistant
- toxicity to A549 cells [2]: no observed hemolytic activity or mammalian cell toxicity
- antibacterial activity (in words) [3]: activity against several Gram-negative bacteria
